Source: patent publication US12123048B2, “Fluorinated 4′-alkylumbelliferyl a-D-glucopyranosides, biological sterilization indicators including the same and methods of using the same” (3M INNOVATIVE PROPERTIES COMPANY, priority 2018, dated 2024)

Test: Fluorescence of control wells containing enzyme substrate in LB broth without spores
Assay type: physicochemical
Conditions: substrate 0.3 mg/mL, 60° C.
Procedure: Luria-Bertani (LB) broth was prepared by dissolving tryptone (10 g/L), yeast extract (5 g/L), and NaCl (5 g/L) in deionized water. In the examples, 6′-fluoro-4′-methylumbelliferyl α-D-glucopyranoside (0.3 mg/mL) or 5′-fluoro-4′-methylumbelliferyl α-D-glucopyranoside (0.3 mg/mL) was added to the broth. In the comparative examples, 4′-methylumbelliferyl α-D-glucopyranoside (MUG) (0.3 mg/mL) or 6′,8′-Difluoro-4′-methylumbelliferyl α-D-glucopyranoside (0.3 mg/mL) was added to the broth. The pH of the broth was adjusted to either pH 6, pH 7, pH 8, or pH 9 using 0.1 N hydrochloric acid or 1N sodium hydroxide solutions. The broth was passed through a 0.22 micron filter prior to use.
LB broth (pH 6) containing 6′-fluoro-4′-methylumbelliferyl α-D-glucopyranoside (0.3 mg/mL) (enzyme substrate of Example 1) was added to two wells (100 microliters per well) of a black 96-well microtiter plate with optically clear, flat bottom wells (NUNC #165301, Thermo Fisher Scientific, Waltham, MA). A 5 microliter aqueous suspension containing 5×10^6 Geobacillus stearothermophilus spores (ATCC 7953) was added to each well of the microtiter plate. Next, the contents of each well were mixed using a multiple aspiration/delivery sequence with the pipet. […] The top of the plate was covered with an optically clear sealing film (product #4311971, Applied Biosystems Corporation, Foster City, CA). The plate was warmed at 60° C. and shaken in a linear direction. Fluorescence readings (360 nm excitation/450 nm emission at 50% gain) were taken from the bottom of the plate. A reading was taken at an initial time point of 10 seconds and then at +1 minute intervals thereafter. A Synergy Neo2 fluorescence plate reader (BioTek Company, Winooski, VT) was used. In Table 1, the mean fluorescence values detected (RFU) at times of 10 seconds, +5 minutes, +10 minutes, and +30 minutes are reported. The mean fluorescence values detected for the control wells were 978 RFU at 10 seconds; 920 RFU at +5 minutes; 870 RFU at +10 minutes, and 746 RFU at +30 minutes.
LB broth (pH 7) containing 6′-fluoro-4′-methylumbelliferyl α-D-glucopyranoside (0.3 mg/mL) (enzyme substrate of Example 1) was added to two wells (100 microliters per well) of a black 96-well microtiter plate with optically clear, flat bottom wells (NUNC #165301, Thermo Fisher Scientific). A 5 microliter aqueous suspension containing 5×10^6 Geobacillus stearothermophilus spores (ATCC 7953) was added to each well of the microtiter plate. Next, the contents of each well were mixed using a multiple aspiration/delivery sequence with the pipet. […] The top of the plate was covered with an optically clear sealing film (product #4311971, Applied Biosystems Corporation). The plate was warmed at 60° C. and shaken in a linear direction. Fluorescence readings (360 nm excitation/450 nm emission at 50% gain) were taken from the bottom of the plate. A reading was taken at an initial time point of 10 seconds and then at +1 minute intervals thereafter. A Synergy Neo2 fluorescence plate reader (BioTek Company) was used. In Table 2, the mean fluorescence values detected (RFU) at times of 10 seconds, +5 minutes, +10 minutes, and +30 minutes are reported. The mean fluorescence values detected for the control wells were 989 RFU at 10 seconds; 936 RFU at +5 minutes; 895 RFU at +10 minutes, and 763 RFU at +30 minutes.
LB broth (pH 8) containing 6′-fluoro-4′-methylumbelliferyl α-D-glucopyranoside (0.3 mg/mL) (enzyme substrate of Example 1) was added to two wells (100 microliters per well) of a black 96-well microtiter plate with optically clear, flat bottom wells (NUNC #165301, Thermo Fisher Scientific). A 5 microliter aqueous suspension containing 5×10^6 Geobacillus stearothermophilus spores (ATCC 7953) was added to each well of the microtiter plate. Next, the contents of each well were mixed using a multiple aspiration/delivery sequence with the pipet. […]

Compound	mean fluorescence values detected for the control wells (pH 6 LB broth, 10 seconds)	mean fluorescence values detected for the control wells (pH 6 LB broth, +5 minutes)	mean fluorescence values detected for the control wells (pH 6 LB broth, +10 minutes)	mean fluorescence values detected for the control wells (pH 6 LB broth, +30 minutes)	mean fluorescence values detected for the control wells (pH 7 LB broth, 10 seconds)	mean fluorescence values detected for the control wells (pH 7 LB broth, +5 minutes)	mean fluorescence values detected for the control wells (pH 7 LB broth, +10 minutes)	mean fluorescence values detected for the control wells (pH 7 LB broth, +30 minutes)	mean fluorescence values detected for the control wells (pH 8 LB broth, 10 seconds)	mean fluorescence values detected for the control wells (pH 8 LB broth, +5 minutes)	mean fluorescence values detected for the control wells (pH 8 LB broth, +10 minutes)	mean fluorescence values detected for the control wells (pH 8 LB broth, +30 minutes)	mean fluorescence values detected for the control wells (pH 9 LB broth, 10 seconds)	mean fluorescence values detected for the control wells (pH 9 LB broth, +5 minutes)	mean fluorescence values detected for the control wells (pH 9 LB broth, +10 minutes)	mean fluorescence values detected for the control wells (pH 9 LB broth, +30 minutes)
Cc1cc(=O)oc2cc(O[C@H]3O[C@H](CO)[C@@H](O)[C@H](O)[C@H]3O)c(F)cc12 [Example 1, 6′-Fluoro-4′-methylumbelliferyl α-D-glucopyranoside]	978 RFU	920 RFU	870 RFU	746 RFU	989 RFU	936 RFU	895 RFU	763 RFU	940 RFU	884 RFU	845 RFU	723 RFU	825 RFU	772 RFU	738 RFU	633 RFU
Cc1cc(=O)oc2cc(O[C@H]3O[C@H](CO)[C@@H](O)[C@H](O)[C@H]3O)ccc12 [MUG, 4′-methylumbelliferyl-α-D-glucopyranoside]	868 RFU	802 RFU	756 RFU	656 RFU	722 RFU	670 RFU	636 RFU	557 RFU	628 RFU	569 RFU	535 RFU	463 RFU	494 RFU	436 RFU	406 RFU	338 RFU
Cc1cc(=O)oc2c(F)c(O[C@H]3O[C@H](CO)[C@@H](O)[C@H](O)[C@H]3O)c(F)cc12 [Comparative Example A, 6′,8′-Difluoro-4′-methylumbelliferyl α-D-glucopyranoside]	1,768 RFU	1,750 RFU	1,743 RFU	1,805 RFU	1,536 RFU	1,519 RFU	1,508 RFU	1,439 RFU	2,547 RFU	2,601 RFU	2,666 RFU	3,020 RFU	1,381 RFU	1,397 RFU	1,496 RFU	2,521 RFU
Cc1cc(=O)oc2cc(O[C@H]3O[C@H](CO)[C@@H](O)[C@H](O)[C@H]3O)cc(F)c12 [Example 2, 5′-Fluoro-4′-methylumbelliferyl α-D-glucopyranoside]	828 RFU	784 RFU	738 RFU	622 RFU	720 RFU	679 RFU	646 RFU	547 RFU	616 RFU	573 RFU	538 RFU	455 RFU	501 RFU	449 RFU	421 RFU	365 RFU
